Data as given in patent US20260070902A1, “SULFONYL DERIVATIVES AS CCR6 INHIBITORS” (Hoffmann-La Roche Inc., priority 2022, published 2026).

Assays:
human CCR6 [1] = molecular target: T1, human CCR6 (Homo sapiens, UniProt P51684); assay: CHO-K1 CCR6 chemotaxis assay towards CCL20; format: cell-based; details: relative -Log IC50; CHO-K1 cells overexpressing human CCR6; migration towards 100 ng/ml CCL20; 4 h
T1 sequence (P51684 1-374): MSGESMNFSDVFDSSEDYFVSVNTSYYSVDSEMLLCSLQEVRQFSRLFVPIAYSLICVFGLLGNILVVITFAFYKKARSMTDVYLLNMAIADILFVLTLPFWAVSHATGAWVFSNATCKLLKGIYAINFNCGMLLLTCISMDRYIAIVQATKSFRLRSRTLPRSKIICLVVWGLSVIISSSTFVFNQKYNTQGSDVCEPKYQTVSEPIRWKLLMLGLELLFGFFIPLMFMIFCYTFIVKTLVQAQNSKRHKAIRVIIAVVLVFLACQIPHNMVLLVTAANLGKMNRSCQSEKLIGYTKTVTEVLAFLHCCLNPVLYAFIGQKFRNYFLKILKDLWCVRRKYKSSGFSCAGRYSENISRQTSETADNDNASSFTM
Excerpt: CHO-K1 CCR6 Chemotaxis Assay Towards CCL20
Cells overexpressing human CCR6 were used in the chemotaxis assay (DiscoverX, cAMP Hunter™ CHO-K1 CCR6 Gi Cell Line). Growth medium of these cells consisted of DMEM/F12, non-essential Amino acids (1×NEAA, Gibco 11140050), 10% FBS and 1× pen/strep (Gibco 15140). For the chemotaxis assay, Corning Transwell plates were used with a pore size of 8 m (Corning 351164). Cells were harvested using trypsin and diluted to 4*10^6 cells/ml in chemotaxis medium (DMEM, 0.25% BSA, pen/strep). Compounds were four-fold serially diluted in DMSO. Further dilutions were made in chemotaxis medium. Cells were incubated with test compounds for 30 min at 37° C. prior to initiation of the assay (2*10^6 cells/ml). Final DMSO concentration in the assay was 0.2%. Wells of the Transwell plates were filled with 200 μl chemotaxis medium containing 100 ng/ml CCL20 (R&D systems 360-MP). 50 μl of the cell/compound suspension was added to the inserts of the Transwell plates (100,000 cells/insert). The Transwell plates were placed in an incubator at 37° C., 5% CO2 for 4 h. After 4 h, the number of migrated cells was quantified using CellTiter Glo (Promega). Percentage inhibition values were calculated based on the low and high signal obtained with 0.2% DMSO in chemotaxis medium without and with CCL20, respectively. The relative −Log IC50 was determined with GraphPad Prism 9 using a four-parameter dose-response model.

human CCR6 [2] = molecular target: T1, human CCR6; assay: Human CCR6-CRE reporter assay; format: cell-based; parameters: The second construct contained the open reading frame of human CCR6 in the pUNO1 backbone; host or cells: 293FT cells; details: relative -Log IC50; 293FT cells transfected with human CCR6 and CRE-luciferase reporter; 6 μM Forskolin, 6 nM CCL20; 5 h
Procedure, shortened: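 293FT cells transiently co-transfected with human CCR6 and a CRE-luc2P reporter, used 48 h later. Compounds incubated with cells in medium containing 6 μM Forskolin and 6 nM CCL20 (assay-medium levels), 0.1% DMSO final, 5 h at 37° C; luminescence read, relative −Log IC50 from four-parameter fit.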

Question: For `CN(C)C(=O)c1ccc(-c2ccc(S(=O)(=O)[C@H]3CC[C@H](Nc4ccc(S(F)(F)(F)(F)F)cc4)CC3)cc2)cc1` [Example 15, N,N-dimethyl-4′-{[trans-4-{[4-(pentafluoro-λ^6-sulfanyl)phenyl]Amino}cyclohexyl]sulfonyl}-[1,1′-biphenyl]-4-carboxamide], which IC50 (human CCR6 [1]) is on record?
Answer: 63.1 nM

Question: What about the IC50 (human CCR6 [2]) of the same compound?
Answer: 79.4 nM

Question: What does the source list for `NC(=O)c1ccc(-c2ccc(S(=O)(=O)[C@H]3CC[C@H](Nc4ccc(S(F)(F)(F)(F)F)cc4)CC3)cc2)nc1` [Example 49, 6-(4-{[trans-4-{[4-(pentafluoro-λ^6-sulfanyl)phenyl]Amino}cyclohexyl]sulfonyl}phenyl)pyridine-3-carboxamide]?
Answer: IC50 (human CCR6 [1]): 501 nM; IC50 (human CCR6 [2]): 79.4 nM

Question: Which results are given for `N#Cc1cnc2ccc(-c3ccc(S(=O)(=O)N4CCC(Nc5ccc(S(F)(F)(F)(F)F)cc5)CC4)cn3)cn12` [Example 76, 6-{5-[(4-{[4-(pentafluoro-λ^6-sulfanyl)phenyl]Amino}piperidin-1-yl)sulfonyl]pyridin-2-yl}imidazo[1,2-a]pyridine-3-carbonitrile]?
Answer: IC50 (human CCR6 [1]): 501 nM; IC50 (human CCR6 [2]): 794 nM

Question: For `NC(=O)c1n[nH]c2ccc(-c3ccc(S(=O)(=O)[C@H]4CC[C@H](Nc5ccc(S(F)(F)(F)(F)F)cc5)CC4)cc3)cc12` [Example 37, 5-(4-{[trans-4-{[4-(pentafluoro-λ^6-sulfanyl)phenyl]Amino}cyclohexyl]sulfonyl}phenyl)-1H-indazole-3-carboxamide], which IC50 (human CCR6 [1]) is on record?
Answer: 3.98 nM

Question: What about the IC50 (human CCR6 [2]) of the same compound?
Answer: 63.1 nM

Question: `Cc1cnc2ccc(-c3ccc(S(=O)(=O)[C@H]4CC[C@H](Nc5ccc(S(F)(F)(F)(F)F)cc5)CC4)cc3)cn12` [Example 13, 4-(pentafluoro-λ^6-sulfanyl)-N-[trans-4-(4-{3-methylimidazo[1,2-a]pyridin-6-yl}benzenesulfonyl)cyclohexyl]aniline] was tested. Which IC50 (human CCR6 [1]) did it give?
Answer: 5.01 nM

Question: What about the IC50 (human CCR6 [2]) of the same compound?
Answer: 79.4 nM

Question: `O=S(=O)(c1ccc(-c2ccc3nccn3c2)cc1)N1CCC(Nc2ccc(S(F)(F)(F)(F)F)cc2)CC1` [Example 1, 1-(4-{imidazo[1,2-a]pyridin-6-yl}benzenesulfonyl)-N-[4-(pentafluoro-λ^6-sulfanyl)phenyl]piperidin-4-amine] was tested. Which IC50 (human CCR6 [1]) did it give?
Answer: 79.4 nM

Question: And the IC50 (human CCR6 [2])?
Answer: 126 nM

Question: For `CNC(=O)c1ccc(-c2ccc(S(=O)(=O)[C@H]3CC[C@H](Nc4ccc(S(F)(F)(F)(F)F)cc4)CC3)cc2)cn1` [Example 22, N-methyl-5-(4-{[trans-4-{[4-(pentafluoro-λ^6-sulfanyl)phenyl]Amino}cyclohexyl]sulfonyl}phenyl)pyridine-2-carboxamide], which IC50 (human CCR6 [1]) is on record?
Answer: 100 nM

Question: And the IC50 (human CCR6 [2])?
Answer: 39.8 nM

Question: With `CC(C)c1cnc2ccc(-c3ccc(S(=N)(=O)[C@H]4CC[C@H](Nc5ccc(S(F)(F)(F)(F)F)cc5)CC4)cc3)cn12` (relative stereo) [Example 118, {4-[3-(propan-2-yl)imidazo[1,2-a]pyridin-6-yl]phenyl}[trans-4-{[4-(pentafluoro-λ^6-sulfanyl)phenyl]Amino}cyclohexyl](imino)-λ^6-sulfanone] as the compound, how does the IC50 (human CCR6 [1]) read?
Answer: 398 nM

Question: And the IC50 (human CCR6 [2])?
Answer: 79.4 nM

Question: With `CC(C)c1nnc2ccc(-c3ccc(S(=O)(=O)N4CCC(Nc5cccc(S(F)(F)(F)(F)F)c5)CC4)cc3)cn12` [Example 84, N-[3-(pentafluoro-λ^6-sulfanyl)phenyl]-1-{4-[3-(propan-2-yl)-[1,2,4]triazolo[4,3-a]pyridin-6-yl]benzenesulfonyl}piperidin-4-amine] as the compound, how does the IC50 (human CCR6 [1]) read?
Answer: 126 nM

Question: What about the IC50 (human CCR6 [2]) of the same compound?
Answer: 50.1 nM

Question: Which results are given for `CNC(=O)c1cccc(-c2ccc(S(=N)(=O)[C@H]3CC[C@H](Nc4ccc(S(F)(F)(F)(F)F)cc4)CC3)cc2)c1` (stereo partly drawn) [Example 98, N-methyl-4′-{[trans-4-{[4-(pentafluoro-λ^6-sulfanyl)phenyl]Amino}cyclohexyl]sulfonimidoyl}-[1,1′-biphenyl]-3-carboxamide]?
Answer: IC50 (human CCR6 [1]): 251 nM; IC50 (human CCR6 [2]): 200 nM

Question: Which IC50 (human CCR6 [1]) does the source give for `O=S(=O)(c1ccc(-c2ccc3nccn3c2)cc1F)N1CCC(Nc2ccc(S(F)(F)(F)(F)F)cc2)CC1` [Example 74, 1-(2-fluoro-4-{imidazo[1,2-a]pyridin-6-yl}benzenesulfonyl)-N-[4-(pentafluoro-λ^6-sulfanyl)phenyl]piperidin-4-amine] here?
Answer: 794 nM

Question: And the IC50 (human CCR6 [2])?
Answer: 501 nM

Question: For `O=C1Cc2ccc(-c3ccc(S(=O)(=O)[C@H]4CC[C@H](Nc5ccc(S(F)(F)(F)(F)F)cc5)CC4)cc3)cc2N1` [Example 59, 6-(4-{[trans-4-{[4-(pentafluoro-λ^6-sulfanyl)phenyl]Amino}cyclohexyl]sulfonyl}phenyl)-2,3-dihydro-1H-indol-2-one], which IC50 (human CCR6 [1]) is on record?
Answer: 15.8 nM

Question: What about the IC50 (human CCR6 [2]) of the same compound?
Answer: 158 nM

Question: `N#Cc1nnc2ccc(-c3ccc(S(=O)(=O)[C@H]4CC[C@H](Nc5ccc(S(F)(F)(F)(F)F)cc5)CC4)cc3)cn12` [Example 42, 6-(4-{[trans-4-{[4-(pentafluoro-λ^6-sulfanyl)phenyl]Amino}cyclohexyl]sulfonyl}phenyl)-[1,2,4]triazolo[4,3-a]pyridine-3-carbonitrile] was tested. Which IC50 (human CCR6 [1]) did it give?
Answer: 15.8 nM

Question: What about the IC50 (human CCR6 [2]) of the same compound?
Answer: 251 nM

Question: What does the source list for `O=S(=O)(c1ccc(-c2cc(F)c3nccn3c2)cc1)[C@H]1CC[C@H](Nc2ccc(S(F)(F)(F)(F)F)cc2)CC1` [Example 152, 4-(pentafluoro-λ^6-sulfanyl)-N-[trans-4-(4-{8-fluoroimidazo[1,2-a]pyridin-6-yl}benzenesulfonyl)cyclohexyl]aniline]?
Answer: IC50 (human CCR6 [1]): 10 nM; IC50 (human CCR6 [2]): 100 nM

Question: Which results are given for `O=C1NCc2cc(-c3ccc(S(=O)(=O)[C@H]4CC[C@H](Nc5ccc(S(F)(F)(F)(F)F)cc5)CC4)cc3)ccc21` [Example 58, 5-(4-{[trans-4-{[4-(pentafluoro-λ^6-sulfanyl)phenyl]Amino}cyclohexyl]sulfonyl}phenyl)-2,3-dihydro-1H-isoindol-1-one]?
Answer: IC50 (human CCR6 [1]): 15.8 nM; IC50 (human CCR6 [2]): 200 nM

Question: `CC(C)c1cnc2ccc(-c3ccc(S(=O)(=O)[C@H]4CC[C@H](Nc5ccc(S(F)(F)(F)(F)F)cc5)CC4)cc3)cn12` [Example 63, 4-(pentafluoro-λ^6-sulfanyl)-N-[trans-4-{4-[3-(propan-2-yl)imidazo[1,2-a]pyridin-6-yl]benzenesulfonyl}cyclohexyl]aniline] was tested. Which IC50 (human CCR6 [1]) did it give?
Answer: 12.6 nM

Question: And the IC50 (human CCR6 [2])?
Answer: 39.8 nM

Question: With `CNC(=O)c1ccc(-c2ccc(S(=O)(=O)[C@H]3CC[C@H](Nc4ccc(S(F)(F)(F)(F)F)cc4)CC3)cc2)cc1` [Example 16, N-methyl-4′-{[trans-4-{[4-(pentafluoro-λ^6-sulfanyl)phenyl]Amino}cyclohexyl]sulfonyl}-[1,1′-biphenyl]-4-carboxamide] as the compound, how does the IC50 (human CCR6 [1]) read?
Answer: 12.6 nM

Question: And the IC50 (human CCR6 [2])?
Answer: 63.1 nM

Question: Which IC50 (human CCR6 [1]) does the source give for `Cc1n[nH]c2cnc(-c3ccc(S(=O)(=O)[C@H]4CC[C@H](Nc5ccc(S(F)(F)(F)(F)F)cc5)CC4)cc3)cc12` [Example 142, 4-(pentafluoro-λ^6-sulfanyl)-N-[trans-4-(4-{3-methyl-1H-pyrazolo[3,4-c]pyridin-5-yl}benzenesulfonyl)cyclohexyl]aniline] here?
Answer: 25.1 nM

Question: What about the IC50 (human CCR6 [2]) of the same compound?
Answer: 251 nM

Question: For `NC(=O)c1cc(-c2ccc(S(=O)(=O)N3CC[C@H](Nc4ccc(S(F)(F)(F)(F)F)cc4)[C@@H](F)C3)cc2)ccn1` (stereo in doubt) [Example 83, 4-(4-{[(3S,4S)-3-fluoro-4-{[4-(pentafluoro-λ^6-sulfanyl)phenyl]Amino}piperidin-1-yl]sulfonyl}phenyl)pyridine-2-carboxamide], which IC50 (human CCR6 [1]) is on record?
Answer: 50.1 nM

Question: What about the IC50 (human CCR6 [2]) of the same compound?
Answer: 316 nM

Question: What does the source list for `O=S(=O)(c1ccc(-c2ccc3nncn3c2)cc1)[C@H]1CC[C@H](Nc2ccc(S(F)(F)(F)(F)F)cc2)CC1` [Example 36, 4-(pentafluoro-λ^6-sulfanyl)-N-[trans-4-(4-{[1,2,4]triazolo[4,3-a]pyridin-6-yl}benzenesulfonyl)cyclohexyl]aniline]?
Answer: IC50 (human CCR6 [1]): 1580 nM; IC50 (human CCR6 [2]): 126 nM

Question: What does the source list for `O=C1NCCc2cc(-c3ccc(S(=O)(=O)[C@H]4CC[C@H](Nc5ccc(S(F)(F)(F)(F)F)cc5)CC4)cc3)ccc21` [Example 61, 6-(4-{[trans-4-{[4-(pentafluoro-λ^6-sulfanyl)phenyl]Amino}cyclohexyl]sulfonyl}phenyl)-1,2,3,4-tetrahydroisoquinolin-1-one]?
Answer: IC50 (human CCR6 [1]): 31.6 nM; IC50 (human CCR6 [2]): 126 nM
